According to patent US12390440B2, “Immunomodulating trifluoromethyl-aminal azalides” (Zoetis Services LLC, priority 2020, dated 2025):

Columns and labels:
[1] = system: IL-1β; assay: Bovine whole blood assay, IL-1β; assay type: cell-based; details: overstimulation of IL-1β, perceived cellular toxicity concentration;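 also: compound concentration at which rising IL-1β release signals cytotoxicity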
Experimental: (§1) (protected from light) for 30 minutes.

[2] = system: IL-6; assay: Bovine whole blood assay, IL-6; assay type: cell-based; details: Bos taurus, fresh whole bovine blood, LPS 1 μg/mL
Experimental: as §1

[3] = system: P. multocida 46572; assay: In vivo mouse lung infection challenge model (murine efficacy); details: mouse, in vivo
Experimental: The challenge organism was P. multocida 46572. Target challenge concentration was 5×10^2 CFU/mouse. Isolated colonies from overnight growth (37° C. with 5% CO2) on trypticase soy agar (TSA II) blood plates were transferred to room temperature Brain Heart Infusion Broth (BHIB). The broth culture was incubated 3.5-4 hours to approximately mid-log phase of growth, as measured by forward light scatter at 600 nm (OD600, 0.200). The culture was centrifuged to collect the bacterial pellet. The pellet was re-suspended in BHIB and adjusted to provide an approximate concentration of 2.7 log^10 colony forming units (CFU) in 0.04 mL at the highest concentration. The challenge inoculum concentration was confirmed by serial dilutions of the inoculum for CFU enumeration. On Day −5, CD-1 female mice were received. Mice were given standard rodent diet and water ad libitum. On Day 0, bacterial inoculum (0.04 mL) was administered to each mouse (n=36) intranasally. Compounds of the invention were dosed at 20 mg/kg (0.1 mL) in a buffered (˜pH 5.4) propylene glycol, monothioglycerol and water solution by subcutaneous injection. Animals were observed from Days 1-10. The study was terminated on Day 10. In addition, some treatment groups were sampled at 6, 24, and 48 hours post bacterial challenge for RNA sequence analysis of lung tissue.
The murine efficacy model (P. multocida challenge) was optimized, and the treatment group size was powered to be able to observe statistically significant improvement of survival to expected ranges for immunomodulatory compounds. The experimental design was a randomized complete block design. Mice were individually identified and treatment groups comingled within a cage, with every treatment group equally represented across cages. Mortality was the primary variable. Mortality data was analyzed using a generalized mixed model with fixed effect of treatment and random effect of block. Survival time was also analyzed using the SAS PHREG (survival analysis) procedure to examine whether there were significant differences between treatment groups and the control group. Numerous compounds of the invention and M9 (positive control) were tested in this model at a dose of 20 mg/kg (Table 3). Typical percent survival for no treatment control is in the range of 0-20% based on study to study variation in challenge inoculum and rate of infection. […] Mouse survival for M9 was about 90-100%, further supporting its residual antibacterial properties against the bacterial strain. Harmonized survival accounts for % survival relative to vehicle (“−” control) and M9 (“+” control)) survival data (Table 3).

[4] = molecular target: T1, TLR4 (Bos taurus, UniProt Q9GL65); assay: Drug/protein binding partner, SPR: TLR4; design: species or system bovine; details: PBMCs, Trachea
T1 sequence (Q9GL65 24-841): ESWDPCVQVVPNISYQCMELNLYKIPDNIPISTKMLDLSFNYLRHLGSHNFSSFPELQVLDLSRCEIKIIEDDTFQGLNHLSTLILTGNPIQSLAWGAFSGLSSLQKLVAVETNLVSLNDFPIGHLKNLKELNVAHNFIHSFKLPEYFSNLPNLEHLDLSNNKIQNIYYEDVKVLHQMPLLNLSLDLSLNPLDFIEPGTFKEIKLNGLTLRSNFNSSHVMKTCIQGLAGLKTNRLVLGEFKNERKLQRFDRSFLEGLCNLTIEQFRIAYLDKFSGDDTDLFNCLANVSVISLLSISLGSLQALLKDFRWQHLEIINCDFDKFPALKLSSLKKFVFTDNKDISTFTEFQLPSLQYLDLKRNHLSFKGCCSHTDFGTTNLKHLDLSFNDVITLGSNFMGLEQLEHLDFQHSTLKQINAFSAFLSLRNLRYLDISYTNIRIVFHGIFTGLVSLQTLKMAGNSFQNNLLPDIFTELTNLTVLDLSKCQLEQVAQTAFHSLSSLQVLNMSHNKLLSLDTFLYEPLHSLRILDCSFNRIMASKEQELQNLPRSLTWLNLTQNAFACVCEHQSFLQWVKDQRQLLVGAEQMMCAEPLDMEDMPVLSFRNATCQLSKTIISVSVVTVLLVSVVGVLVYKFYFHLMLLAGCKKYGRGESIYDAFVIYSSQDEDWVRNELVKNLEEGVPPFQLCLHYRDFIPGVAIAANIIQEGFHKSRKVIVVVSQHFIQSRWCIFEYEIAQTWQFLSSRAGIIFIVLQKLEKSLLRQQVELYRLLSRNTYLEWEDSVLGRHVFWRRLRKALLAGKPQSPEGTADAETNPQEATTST
Experimental: To further characterize the direct activity of the compounds of the invention, experiments to identify the drug's direct binding host partners(s) were performed with the aim of identifying the potential biological targets. Bovine primary cells (peripheral blood mononuclear cells [PBMCs] and polymorphonuclear cells [PMN/neutrophils]) and tissue (trachea, lung) protein homogenates were mixed with M9 and the macrolide, gamithromicin as a comparator. Tissue interactions were allowed to form using a heterogeneous assembly method (nematic protein organization technique, NPOT; Inoviem Scientific); and traditional western blots to identify native-structure proteins bound to the compound. Mass spectrometry analysis identified eight proteins involved in the interaction with M9 as compared to gamithromycin. The antibacterial macrolide gamithromycin was used as a comparator to differentiate specific binding to M9. These proteins were considered to be either direct binding partners of the drug or closely involved in the drug:target interaction (Table 6).
In order to add further clarity to binding partner identification, surface plasma resonance (SPR) technology was used. […]
KD is the equilibrium dissociation constant that was used to present the drug/target affinity. The identified targets associated with drug were measured by surface plasmon resonance (SPR) to define the KD.

CCCNC[C@]1(O)[C@H](C)O[C@@H](O[C@H]2[C@H](C)[C@@H](O[C@@H]3O[C@H](C)C[C@H](NC)[C@H]3O)[C@](C)(O)C[C@@H](C)CN[C@H](C)[C@@H](O)[C@](C)(O)[C@@H](CC)OC(=O)[C@@H]2C)C[C@@]1(C)OC [Example M9, (2R,3S,4R,5R,8R,10R,11R,12S,13S,14R)-2-ethyl-3,4,10-trihydroxy-13-(((2R,4R,5S,6S)-5-hydroxy-4-methoxy-4,6-dimethyl-5-((propylamino)methyl)-tetrahydro-2H-pyran-2-yl)oxy)-11-(((2S,3R,4S,6R)-3-hydroxy-6-methyl-4-(methylamino)tetrahydro-2H-pyran-2-yl)oxy)-3,5,8,10,12,14-hexamethyl-1-oxa-6-azacyclopentadecan-15-one]
IL-1β OS of LPS [1]: > 500 µM
IC50 [2]: > 250 µM
clinical efficacy in P. multocida infection in mice [3]: clinically efficacious
Interaction KD [4]: Indirect
